Laboratory results published in PubChem BioAssay AID256 (DTP/NCI, 2004).
Values joined by “and” are separate entries in the source; they are usually repeats but may differ in a detail not shown here. Equal values may be shown once. Inconclusive results and toxic doses are left out. Rule for the calls: active = survival T/C of 150% or more; inactive = T/C below 125% in these data.

Tested on: CD2F1 mice, L1210 leukemia ip, survival T/C
Experiment: NCI In Vivo Anticancer Drug Screen. Data for tumor model L1210 Leukemia (intraperitoneal) in CD2F1 (CDF1) mice
Settings: higher = longer survival
How it was run: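 Activity against a transplanted murine tumor was judged by comparing the compound group with a vehicle group. The outcome in the treated animals was divided by that in the controls.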

[1] = endpoint: mean survival time, dose: 50.0 mg/kg/injection, schedule: Q01DX009 (ip), vehicle: saline with Tween-80
[2] = endpoint: mean survival time, dose: 100.0 mg/kg/injection, schedule: Q01DX009 (ip), vehicle: saline with Tween-80
[3] = endpoint: mean survival time, dose: 200.0 mg/kg/injection, schedule: Q01DX009 (ip), vehicle: saline with Tween-80
[4] = endpoint: mean survival time, dose: 10.0 mg/kg/injection, schedule: Q04DX003 (ip), vehicle: saline
[5] = endpoint: mean survival time, dose: 20.0 mg/kg/injection, schedule: Q04DX003 (ip), vehicle: saline
[6] = endpoint: mean survival time, dose: 100.0 mg/kg/injection, schedule: Q04DX003 (ip), vehicle: saline
[7] = endpoint: mean survival time, dose: 200.0 mg/kg/injection, schedule: Q04DX003 (ip), vehicle: saline
[8] = endpoint: mean survival time, dose: 400.0 mg/kg/injection, schedule: Q04DX003 (ip), vehicle: saline
[9] = endpoint: mean survival time, dose: 75.0 mg/kg/injection, schedule: Q01DX001 (ip), vehicle: saline
[10] = endpoint: mean survival time, dose: 150.0 mg/kg/injection, schedule: Q01DX001 (ip), vehicle: saline
[11] = endpoint: mean survival time, dose: 100.0 mg/kg/injection, schedule: Q04DX003 (ip), vehicle: saline with Tween-80
[12] = endpoint: mean survival time, dose: 200.0 mg/kg/injection, schedule: Q04DX003 (ip), vehicle: saline with Tween-80
[13] = endpoint: mean survival time, dose: 400.0 mg/kg/injection, schedule: Q04DX003 (ip), vehicle: saline with Tween-80
[14] = endpoint: mean survival time, dose: 400.0 mg/kg/injection, schedule: Q01DX009 (ip), vehicle: saline with Tween-80
[15] = endpoint: mean survival time, dose: 50.0 mg/kg/injection, schedule: Q04DX003 (ip), vehicle: saline with Tween-80
[16] = endpoint: mean survival time, dose: 12.5 mg/kg/injection, schedule: Q01DX009 (ip), vehicle: other
[17] = endpoint: mean survival time, dose: 25.0 mg/kg/injection, schedule: Q01DX009 (ip), vehicle: other
[18] = endpoint: mean survival time, dose: 50.0 mg/kg/injection, schedule: Q01DX009 (ip), vehicle: other
[19] = endpoint: mean survival time, dose: 100.0 mg/kg/injection, schedule: Q01DX009 (ip), vehicle: other
[20] = endpoint: mean survival time, dose: 200.0 mg/kg/injection, schedule: Q01DX009 (ip), vehicle: other
[21] = endpoint: mean survival time, dose: 100.0 mg/kg/injection, schedule: Q01DX001 (ip), vehicle: saline with Tween-80
[22] = endpoint: mean survival time, dose: 200.0 mg/kg/injection, schedule: Q01DX001 (ip), vehicle: saline with Tween-80

Measured: T/C

NCCCC(N)C(=O)O (stereo unspecified)
inactive: endpoint: median survival time, dose: 3.13 mg/kg/injection, schedule: Q04DX002 (ip), vehicle: saline 111 % of control | endpoint: median survival time, dose: 6.25 mg/kg/injection, schedule: Q04DX002 (ip), vehicle: saline 117 % of control | endpoint: median survival time, dose: 12.5 mg/kg/injection, schedule: Q04DX002 (ip), vehicle: saline 108 % of control | endpoint: median survival time, dose: 50.0 mg/kg/injection, schedule: Q04DX002 (ip), vehicle: saline 105 % of control

O=C(CNC(=O)Nc1cccc([N+](=O)[O-])c1)N/N=C/c1ccncc1
inactive: [1] 89 % of control | [2] 89 % of control | [3] 93 % of control

c1ccc(C(c2ccccc2)[n+]2ccccc2)cc1
inactive: endpoint: mean survival time, dose: 5.0 mg/kg/injection, schedule: Q01DX009 (ip), vehicle: saline 98 % of control | endpoint: mean survival time, dose: 5.0 mg/kg/injection, schedule: Q04DX003 (ip), vehicle: saline 104 % of control | endpoint: mean survival time, dose: 10.0 mg/kg/injection, schedule: Q01DX009 (ip), vehicle: saline 102 % of control | [4] 103 % of control | [5] 109 % of control

CC(C)(CCC(=O)O)c1ccc(O)cc1
inactive: [6] 101 % of control | [7] 103 % of control | [8] 103 % of control

CC12COC(=O)C1(C)C1CCC2O1 (stereo unspecified)
inactive: endpoint: mean survival time, dose: 1.0 mg/kg/injection, schedule: Q04DX002 (ip), vehicle: saline 92 % of control | endpoint: mean survival time, dose: 2.0 mg/kg/injection, schedule: Q04DX002 (ip), vehicle: saline 88 % of control | endpoint: mean survival time, dose: 4.0 mg/kg/injection, schedule: Q04DX002 (ip), vehicle: saline 92 % of control | endpoint: mean survival time, dose: 5.0 mg/kg/injection, schedule: Q01DX002 (ip), vehicle: saline with Tween-80 100 % of control | endpoint: mean survival time, dose: 10.0 mg/kg/injection, schedule: Q01DX002 (ip), vehicle: saline with Tween-80 108 % of control

O=C(O)C/C=C/Br
inactive: [9] 100 % of control | [10] 100 % of control

CCCCNC(=S)Nc1ccccc1
inactive: [1] 100 % of control | [2] 105 % of control | [3] 86 % of control

O=C1C(C(O)c2ccccc2)CCCC1C(O)c1ccccc1 (stereo unspecified)
inactive: [11] 89 % of control | [12] 89 % of control | [13] 92 % of control

CC1(C)CCCC2(C)CC/C(=N\NC(N)=O)C=C12 (stereo unspecified)
inactive: [2] 93 % of control | [11] 95 % of control | [3] 89 % of control | [12] 96 % of control | [14] 88 % of control | [13] 96 % of control

CCOC(=O)C1=C(C)NC(C)=C(C(=O)OCC)C1c1ccccc1
inactive: [1] 98 % of control | [15] 97 % of control | [2] 102 % of control | [11] 97 % of control and 100 % of control | [3] 102 % of control | [12] 90 % of control and 96 % of control | [13] 103 % of control

O=S(=O)(O)O.[Zr]
inactive: [9] 97 % of control | [10] 91 % of control

COC(=O)C1=CCCN(C)C1
inactive: endpoint: mean survival time, dose: 12.5 mg/kg/injection, schedule: Q01DX009 (ip), vehicle: saline 98 % of control | endpoint: mean survival time, dose: 25.0 mg/kg/injection, schedule: Q01DX009 (ip), vehicle: saline 104 % of control | endpoint: mean survival time, dose: 50.0 mg/kg/injection, schedule: Q01DX009 (ip), vehicle: saline 98 % of control

C=C1CC(O)C2C(=C)C(=O)OC2C2C(C)C(=O)CC12 (stereo unspecified)
inactive: endpoint: mean survival time, dose: 6.25 mg/kg/injection, schedule: Q01DX009 (ip), vehicle: Klucel (hydroxypropylcellulose) (HPC) 95 % of control | endpoint: mean survival time, dose: 12.5 mg/kg/injection, schedule: Q01DX009 (ip), vehicle: Klucel (hydroxypropylcellulose) (HPC) 100 % of control | endpoint: mean survival time, dose: 25.0 mg/kg/injection, schedule: Q01DX009 (ip), vehicle: Klucel (hydroxypropylcellulose) (HPC) 105 % of control

COc1cc2c(c(OC)c1OC)-c1c(cc3c(c1OC)OCO3)CC(C)C(C)(O)C2OC(=O)c1ccccc1 (stereo unspecified)
inactive: endpoint: median survival time, dose: 25.0 mg/kg/injection, schedule: Q01DX009 (ip), vehicle: saline + Tween-80 + alcohol 100 % of control | endpoint: median survival time, dose: 50.0 mg/kg/injection, schedule: Q01DX009 (ip), vehicle: saline + Tween-80 + alcohol 102 % of control | endpoint: median survival time, dose: 100.0 mg/kg/injection, schedule: Q01DX009 (ip), vehicle: saline + Tween-80 + alcohol 107 % of control | endpoint: median survival time, dose: 200.0 mg/kg/injection, schedule: Q01DX009 (ip), vehicle: saline + Tween-80 + alcohol 102 % of control | endpoint: median survival time, dose: 400.0 mg/kg/injection, schedule: Q01DX009 (ip), vehicle: saline + Tween-80 + alcohol 98 % of control

S=C=NCCc1ccccc1
inactive: endpoint: mean survival time, dose: 3.12 mg/kg/injection, schedule: Q01DX009 (ip), vehicle: saline with Tween-80 93 % of control | endpoint: mean survival time, dose: 6.25 mg/kg/injection, schedule: Q01DX009 (ip), vehicle: saline with Tween-80 92 % of control | endpoint: mean survival time, dose: 12.5 mg/kg/injection, schedule: Q01DX009 (ip), vehicle: saline with Tween-80 106 % of control | endpoint: mean survival time, dose: 25.0 mg/kg/injection, schedule: Q01DX009 (ip), vehicle: saline with Tween-80 104 % of control | [1] 106 % of control

O=C(C1CCCCC1)C1CCC2(CCCCC2)CC1
inactive: [16] 92 % of control | [17] 87 % of control | [18] 93 % of control | [19] 92 % of control | [20] 95 % of control

Cc1cc(C)cc(C(C)C)c1
inactive: [2] 98 % of control | [3] 101 % of control

CC[O+](CC)CC
inactive: endpoint: mean survival time, dose: 12.5 mg/kg/injection, schedule: Q04DX002 (ip), vehicle: saline 95 % of control | endpoint: mean survival time, dose: 25.0 mg/kg/injection, schedule: Q04DX002 (ip), vehicle: saline 91 % of control | endpoint: mean survival time, dose: 50.0 mg/kg/injection, schedule: Q04DX002 (ip), vehicle: saline 95 % of control

C[As](C)SCC1OC(n2ccc(=O)[nH]c2=O)CC1O (stereo unspecified)
inactive: endpoint: median survival time, dose: 12.5 mg/kg/injection, schedule: Q01DX005 (ip), vehicle: distilled water + Tween-80 97 % of control | endpoint: median survival time, dose: 25.0 mg/kg/injection, schedule: Q01DX005 (ip), vehicle: distilled water + Tween-80 104 % of control | endpoint: median survival time, dose: 50.0 mg/kg/injection, schedule: Q01DX005 (ip), vehicle: distilled water + Tween-80 106 % of control | endpoint: median survival time, dose: 100.0 mg/kg/injection, schedule: Q01DX005 (ip), vehicle: distilled water + Tween-80 109 % of control

Cc1ccc(NS(=O)(=O)c2ccccc2)c([N+](=O)[O-])c1
inactive: [2] 97 % of control | [11] 105 % of control | [3] 95 % of control | [12] 97 % of control | [14] 100 % of control | [13] 100 % of control

Clc1ccc(OCC2CO2)cc1 (stereo unspecified)
inactive: endpoint: mean survival time, dose: 25.0 mg/kg/injection, schedule: Q04DX003 (ip), vehicle: saline with Tween-80 101 % of control | [15] 101 % of control | [11] 98 % of control

COc1cc([C@@H]2c3cc4c(c(O)c3C[C@H]3COC(=O)[C@@H]32)OCO4)cc(OC)c1OC
inactive: [4] 100 % of control | [5] 108 % of control | endpoint: mean survival time, dose: 40.0 mg/kg/injection, schedule: Q04DX003 (ip), vehicle: saline 105 % of control | endpoint: mean survival time, dose: 80.0 mg/kg/injection, schedule: Q04DX003 (ip), vehicle: saline 121 % of control | endpoint: mean survival time, dose: 125.0 micrograms/kg/injection, schedule: Q01DX009 (ip), vehicle: saline 100 % of control | endpoint: mean survival time, dose: 250.0 micrograms/kg/injection, schedule: Q01DX009 (ip), vehicle: saline 108 % of control | endpoint: mean survival time, dose: 500.0 micrograms/kg/injection, schedule: Q01DX009 (ip), vehicle: saline 110 % of control | endpoint: mean survival time, dose: 2000.0 micrograms/kg/injection, schedule: Q01DX009 (ip), vehicle: saline 124 % of control | endpoint: mean survival time, dose: 4000.0 micrograms/kg/injection, schedule: Q01DX009 (ip), vehicle: saline 114 % of control

Cc1cccc(NC(=S)NC(=O)c2ccccc2)n1
inactive: [16] 91 % of control | [17] 92 % of control | [18] 88 % of control | [19] 88 % of control | [20] 91 % of control

O=C1CCC2=C(CCC3(C2)OCCO3)N1
inactive: [2] 94 % of control | [6] 96 % of control | [3] 102 % of control | [7] 103 % of control | [14] 90 % of control | [8] 100 % of control

CCC(=O)C(C)(C)c1ccccc1 (tested in a mixture with another compound)
inactive: [21] 110 % of control | [22] 98 % of control

COc1cc(/C=C\[N+](=O)[O-])c([N+](=O)[O-])cc1OCc1ccccc1
inactive: [21] 94 % of control | [22] 97 % of control
